Experimental data reported in US9238055B2, “Peptide bone forming peptide 4 for promoting osteogenesis or vascularization and use thereof” (Chonnam National University Hospital, priority 2011, dated 2016).
Where no end group is shown, it is not given here.

System: mesenchymal stem cells
Experiment: MTT assay for cytotoxicity
Format: cell-based, mouse
Details: at concentrations effective for promoting osteogenic differentiation; FIG. 3
Description: At concentrations effective for calcium deposition, BFP 4 was analyzed for cytotoxicity. In this context, MTT ((3-(4,5-Dimethylthiazol-2-yl)-2,5-diphenyltetrazolium bromide, a yellow tetrazole) assay was performed using an MTT Cell Proliferation Assay Kit (Cayman Chemical) according to the instructions of the manufacturer.

FFKATEVHFRSIRST [BFP 4, Phe-Phe-Lys-Ala-Thr-Glu-Val-His-Phe-Arg-Ser-Ile-Arg-Ser-Thr]
Cytotoxicity (MTT): no cytotoxicity was detected
